Laboratory results from patent US7741354B2, “Inhibitors of glutaminyl cyclase” (Probiodrug AG, priority 2006, dated 2010).

Target: hQC (Homo sapiens, UniProt Q16769)
Test: Fluorometric (fluorescent) assay of hQC inhibition, IC50
Assay type: biochemical
Settings: hQC inhibition; read-out: IC50
How it was run: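 Two coupled fluorometric formats at 30° C, pH 8.0 Tris/HCl with EDTA: H-Gln-βNA at 0.2 mM read at 320/410 nm, or H-Gln-AMC at varied levels read at 380/460 nm, each started by adding QC.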

Chain of hQC (Q16769 29-361): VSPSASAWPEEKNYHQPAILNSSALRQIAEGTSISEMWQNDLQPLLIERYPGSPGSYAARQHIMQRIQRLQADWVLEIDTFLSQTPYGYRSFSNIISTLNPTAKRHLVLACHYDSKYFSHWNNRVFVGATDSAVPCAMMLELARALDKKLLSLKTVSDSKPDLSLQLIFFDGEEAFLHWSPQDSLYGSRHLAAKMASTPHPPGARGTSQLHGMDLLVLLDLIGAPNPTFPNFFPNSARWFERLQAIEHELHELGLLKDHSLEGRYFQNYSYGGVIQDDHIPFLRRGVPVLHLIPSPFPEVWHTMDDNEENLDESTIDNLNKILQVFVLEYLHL

In order of falling IC50:
1. C/C=C/C=C/C(Nc1ccc2[nH]cnc2c1)c1nnnn1CC1CCCO1 (stereo not shown) [compound 174, (1H-Benzoimidazol-5-yl)-{(2E,4E)-1-[1-(tetrahydro-furan-2-ylmethyl)-1H-tetrazol-5-yl]-hexa-2,4-dienyl}-amine]  8.5 µM
2. CCOC(=O)C1CCCCC1n1nnnc1C(Nc1ccc2[nH]cnc2c1)c1ccc(OC)c(F)c1 (stereo not shown) [compound 132, 2-{5-[(1H-Benzoimidazol-5-ylamino)-(3-fluoro-4-methoxy-phenyl)-methyl]-tetrazol-1-yl}-cyclohexanecar-boxylic acid ethyl ester]  8.5 µM
3. O=[N+]([O-])c1ccc(-n2nnnc2C(Nc2ccc3[nH]cnc3c2)c2csc3ccccc23)cc1 (stereo not shown) [compound 206]  8.5 µM
4. CCOC(=O)C1CCCCC1n1nnnc1C(Nc1ccc2[nH]cnc2c1)c1cc(Cl)ccc1O (stereo not shown) [compound 169, 2-{5-[(1H-Benzoimidazol-5-ylamino)-(5-chloro-2-hydroxy-phenyl)-methyl]-tetrazol-1-yl}-cyclohexacar-boxylic acid ethyl ester]  7.6 µM
5. c1cncc(Cn2nnnc2C(Nc2ccc3[nH]cnc3c2)c2ccc3nsnc3c2)c1 (stereo not shown) [compound 185]  6.7 µM
6. c1nc2cc(NC(c3ccc4c(c3)OCO4)c3nnnn3CC3CCCO3)ccc2[nH]1 (stereo not shown) [compound 118]  6.7 µM
7. CCOC(=O)C1CCCCC1n1nnnc1C(Nc1ccc2[nH]cnc2c1)c1ccc2c(c1)OCO2 (stereo not shown) [compound 162]  5.8 µM
8. Cc1cc(C(Nc2ccc3[nH]cnc3c2)c2nnnn2CC2COC(C)(C)O2)cc(C)c1O (stereo not shown) [compound 165, 4-{(1H-Benzoimidazol-5-ylamino)-[1-(2,2-dimethyl-[1,3]dioxolan-4-ylmethyl)-1H-tetrazol-5-yl]-methyl}-2,6-dimethyl-phenol]  5.8 µM
9. CCOC(=O)C1CCCCC1n1nnnc1C(Nc1ccc2[nH]cnc2c1)c1ccc(CC)cc1 (stereo not shown) [compound 168]  5.8 µM
10. Cc1cc(C)cc(C(Nc2ccc3[nH]cnc3c2)c2nnnn2CC(=O)N2CCc3ccccc3C2)c1 (stereo not shown) [compound 137, 2-{5-[(1H-Benzoimidazol-5-ylamino)-(3,5-dimethyl-phenyl)-methyl]-tetrazol-1-yl}-1-(3,4-dihydro-1H-isoquinolin-2-yl)-ethanone]  4.9 µM
11. CCc1ccc(C(Nc2ccc3[nH]cnc3c2)c2nnnn2C2CCCCC2)cc1 (stereo not shown) [compound 198, (1H-Benzoimidazol-5-yl)-[(1-cyclohexyl-1H-tetrazol-5-yl)-(4-ethyl-phenyl)-methyl]-amine]  4.9 µM
12. CC1(C)OCC(Cn2nnnc2C(Nc2ccc3[nH]cnc3c2)c2cnc3ccccc3c2)O1 (stereo not shown) [compound 156, (1H-Benzoimidazol-5-yl)-{[1-(2,2-dimethyl-[1,3]dioxolan-4-ylmethyl)-1H-tetrazol-5-yl]-quinolin-3-yl-methyl}-amine]  4.9 µM
13. Clc1ccc(Cn2nnnc2C(Nc2ccc3[nH]cnc3c2)c2ccc(Cl)cc2)cc1 (stereo not shown) [compound 136, (1H-Benzoimidazol-5-yl)-[[1-(4-chloro-benzyl)-1H-tetrazol-5-yl]-(4-chloro-phenyl)-methyl]-amine]  4 µM
14. COc1ccc(C(Nc2ccc3[nH]cnc3c2)c2nnnn2CC(=O)OC(C)(C)C)cc1 (stereo not shown) [compound 172, {5-[(1H-Benzoimidazol-5-ylamino)-(4-methoxy-phenyl)-methyl]-tetrazol-1-yl}-acetic acid tert-butyl ester]  4 µM
15. Brc1cc(Br)cc(C(Nc2ccc3[nH]cnc3c2)c2nnnn2CCCCc2ccccc2)c1 (stereo not shown) [compound 189, (1H-Benzoimidazol-5-yl)-{(3,5-dibromo-phenyl)-[1-(4-phenyl-butyl)-1H-tetrazol-5-yl]-methyl}-amine]  3.1 µM
16. O=[N+]([O-])c1cc(C(Nc2ccc3[nH]cnc3c2)c2nnnn2Cc2ccc(Cl)cc2)ccc1Cl (stereo not shown) [compound 197, (1H-Benzoimidazol-5-yl)-[[1-(4-chloro-benzyl)-1H-tetrazol-5-yl]-(4-chloro-3-nitro-phenyl)-methyl]-amine]  2.2 µM
17. CC(C)(C)OC(=O)Cn1nnnc1C(Nc1ccc2[nH]cnc2c1)c1ccc(-c2ccccn2)cc1 (stereo not shown) [compound 212, {5-[(1H-Benzoimidazol-5-ylamino)-(4-pyridin-2-yl-phenyl)-methyl]-tetrazol-1-yl}-acetic acid tert-butyl ester]  2.2 µM
18. Brc1cc(Br)cc(C(Nc2ccc3[nH]cnc3c2)c2nnnn2Cc2ccccc2)c1 (stereo not shown) [compound 190, (1H-Benzoimidazol-5-yl)-[(1-benzyl-1H-tetrazol-5-yl)-(3,5-dibromo-phenyl)-methyl]-amine]  1.3 µM

Same assay, conditions: purified compound from preparative synthesis; fluorescent assay; read-out: IC50 hQC

In order of rising IC50:
1. Cc1ccc(O)c(C(NCCCn2ccnc2)c2nnnn2C2CC2)c1 (stereo not shown) [Compound 68, 2-[(1-Cyclopropyl-1H-tetrazol-5-yl)-(3-imidazol-1-yl-propylamino)-methyl]-4-methyl-phenol]  0.668 µM
2. CN(C)CCn1nnnc1C(NCCCn1ccnc1)C1CCC=CO1 (stereo not shown) [Compound 38, {(3,4-Dihydro-2H-pyran-2-yl)-[1-(2-dimethylamino-ethyl)-1H-tetrazol-5-yl]-methyl}-(3-imidazol-1-yl-propyl)-amine]  2.88 µM

Same assay, conditions: read-out: IC50

In order of rising IC50:
1. COC(=O)Cn1nnnc1C1(NCCCn2ccnc2)CCC1 [compound 49, {5-[1-(3-Imidazol-1-yl-propylamino)-cyclobutyl]-tetrazol-1-yl}-acetic methyl ester]  0.4 µM
2. Cc1ccc(O)c(C(NCCCn2ccnc2)c2nnnn2C2CC2)c1 (stereo not shown) [Compound 68, 2-[(1-Cyclopropyl-1H-tetrazol-5-yl)-(3-imidazol-1-yl-propylamino)-methyl]-4-methyl-phenol]  0.4 µM
3. COC(=O)Cn1nnnc1C(NCCCn1ccnc1)C1CC1 (stereo not shown) [compound 57, {5-[Cyclopropyl-(3-imidazol-1-yl-propylamino)-methyl]-tetrazol-1-yl}-acetic methyl ester]  0.4 µM
4. CN(C)CCn1nnnc1C(NCCCn1ccnc1)C1CCC=CO1 (stereo not shown) [Compound 38, {(3,4-Dihydro-2H-pyran-2-yl)-[1-(2-dimethylamino-ethyl)-1H-tetrazol-5-yl]-methyl}-(3-imidazol-1-yl-propyl)-amine]  0.4 µM
5. Oc1cccc2ccc(C(NCCCn3ccnc3)c3nnnn3C[C@@H]3CCCO3)nc12 (stereo partly drawn) [compound 12, 2-((3-Imidazol-1-yl-propylamino)-{1-[(S)-1-(tetrahydro-furan-2-yl)methyl]-1H-tetrazol-5-yl}-methyl)-quinolin-8-ol]  2.2 µM
6. COC(=O)Cn1nnnc1C(NCCCn1ccnc1)c1ccc2ccccc2n1 (stereo not shown) [compound 55, {5-[(3-Imidazol-1-yl-propylamino)-quinolin-2-yl-methyl]-tetrazol-1-yl}-acetic methyl ester]  2.2 µM
7. c1ccc2ncc(C(Nc3ccc4[nH]cnc4c3)c3nnnn3CC3CCCO3)cc2c1 (stereo not shown) [compound 102, (1H-Benzoimidazol-5-yl)-{quinolin-3-yl-[1-(tetrahydro-furan-2-ylmethyl)-1H-tetrazol-5-yl]-methyl}-amine]  2.2 µM
8. CCc1ccc(C(Nc2ccc3[nH]cnc3c2)c2nnnn2Cc2cccnc2)cc1 (stereo not shown) [compound 82, (1H-Benzoimidazol-5-yl)-[(4-ethyl-phenyl)-(1-pyridin-3-ylmethyl-1H-tetrazol-5-yl)-methyl]-amine]  4 µM
9. Cn1nnnc1C(NCCCn1ccnc1)c1ccc2[nH]ccc2c1 (stereo not shown) [compound 30, (3-Imidazol-1-yl-propyl)-[(1H-indol-5-yl)-(1-methyl-1H-tetrazol-5-yl)-methyl]-amine]  4 µM
10. Cc1ccc(C(Nc2ccc3[nH]cnc3c2)c2nnnn2CC2CCCO2)cc1C (stereo not shown) [compound 83, (1H-Benzoimidazol-5-yl)-{(3,4-dimethyl-phenyl)-[1-(tetrahydro-furan-2-ylmethyl)-1H-tetrazol-5-yl]-methyl}-amine]  4.9 µM
11. Cc1ccc(C(C)CC(Nc2ccc3[nH]cnc3c2)c2nnnn2C2CCCCC2)o1 (stereo not shown) [compound 96, (1H-Benzoimidazol-5-yl)-[1-(1-cyclohexyl-1H-tetrazol-5-yl)-3-(5-methyl-furan-2-yl)-butyl]-amine]  4.9 µM
12. c1ccc2oc(C(Nc3ccc4[nH]cnc4c3)c3nnnn3CC3CCCO3)cc2c1 (stereo not shown) [compound 101, {Benzofuran-2-yl-[1-(tetrahydro-furan-2-ylmethyl)-1H-tetrazol-5-yl]-methyl}-(1H-benzoimidazol-5-yl)-amine]  4.9 µM
13. Oc1cccc2ccc(C(NCCCn3ccnc3)c3nnnn3Cc3ccc(Cl)cc3)nc12 (stereo not shown) [compound 4, 2-[[1-(4-Chloro-benzyl)-1H-tetrazol-5-yl]-(3-imidazol-1-yl-propylamino)-methyl]-quinolin-8-ol]  4.9 µM
14. Clc1ccc(Cn2nnnc2[C@H](NCCCn2ccnc2)C2CCC=CO2)cc1 (stereo partly drawn) [compound 9, {(S)-[1-(4-Chloro-benzyl)-1H-tetrazol-5-yl]-3,4-dihydro-2H-pyran-2-yl-methyl}-(3-imidazol-1-yl-propyl)-amine]  4.9 µM
15. COCCn1nnnc1C(NCCCn1ccnc1)c1ccc2ccccc2n1 (stereo not shown) [compound 42, (3-Imidazol-1-yl-propyl)-{[1-(2-methoxy-ethyl)-1H-tetrazol-5-yl]-quinolin-2-yl-methyl}-amine]  5.8 µM
16. Cc1ccc(C(C)CC(Nc2ccc3[nH]cnc3c2)c2nnnn2CC2CCCO2)o1 (stereo not shown) [compound 111, (1H-Benzoimidazol-5-yl)-{3-(5-methyl-furan-2-yl)-1-[1-(tetrahydro-furan-2-ylmethyl)-1H-tetrazol-5-yl]-butyl}-amine]  5.8 µM
17. c1cn(CCCNC(c2ccc3[nH]ccc3c2)c2nnnn2C[C@@H]2CCCO2)cn1 (stereo partly drawn) [compound 13, (3-Imidazol-1-yl-propyl)-((1H-indol-5-yl)-{1-[(S)-1-(tetrahydro-furan-2-yl)methyl]-1H-tetrazol-5-yl}-methyl)-amine]  6.7 µM
18. N#Cc1cc(C(NCCCn2ccnc2)c2nnnn2Cc2ccc(Cl)cc2)ccc1F (stereo not shown) [compound 5, 5-[[1-(4-Chloro-benzyl)-1H-tetrazol-5-yl]-(3-imidazol-1-yl-propylamino)-methyl]-2-fluoro-benzonitrile]  6.7 µM
19. CCOC(=O)C1CCCCC1n1nnnc1C(Nc1ccc2[nH]cnc2c1)c1ccc(Cl)c(F)c1 (stereo not shown) [compound 84]  6.7 µM
20. CC(Cc1ccc2c(c1)OCO2)C(Nc1ccc2[nH]cnc2c1)c1nnnn1CC1CCCO1 (stereo not shown) [compound 93, {3-Benzo[1,3]dioxol-5-yl-2-methyl-1-[1-(tetrahydro-furan-2-ylmethyl)-1H-tetrazol-5-yl]-propyl}-(1H-benzoimidazol-5-yl)-amine]  7.6 µM
